The text below walks through data of patent publication US5571808A, “Method for treating smoking-related bone loss” (Eli Lilly and Company, priority 1995, dated 1996).

The test system of series [1] is ovariectomized (ovex) rats. Put plainly: Femur bone density in ovariectomized rats (model of post-menopausal osteoporosis). It is filed as in vivo, Sprague Dawley rats. The conditions noted are these: for inhibition in vivo at 1 mg/kg: Rattus norvegicus, 840 h, 1 mg/kg oral, relative to estrogen treated and untreated ovex animals, read-out: % Inhibition of Bone Loss; for Prevention of bone loss (in words): oral, femur density. The procedure: A model of post-menopausal osteoporosis was used in which effects of different treatments upon femur density were determined. Seventy-five day old female Sprague Dawley rats (weight range of 225 g to 275 g) were obtained from Charles River Laboratories (Portage, Mich.). They were housed in groups of 3 and had ad libitum access to food (calcium content approximately 1%) and water. Room temperature was maintained at 22.2°±1.7° C. with a minimum relative humidity of 40%. The photoperiod in the room was 12 hours light and 12 hours dark.
The right femurs were excised and scanned at the distal metaphysis 1 mm from the patellar groove with single photon absorptiometry. Results of the densitometer measurements represent a calculation of bone density as a function of the bone mineral content and bone width.
Results are reported as the mean of measurements from thirty rats ± the standard error of the mean.
Accordingly, each point reflects the responses of thirty rats and depicts a typical dose response curve for raloxifene in this model. Results are reported as the mean ± the standard error of the mean.
Other compounds of formula I were administered orally in the rat assay described in Example 1.

For series [2], the system named is bone loss in postmenopausal women. The conditions noted are these: cited from earlier work.

As for `O=C(Oc1ccc(-c2sc3cc(OC(=O)c4ccccc4)ccc3c2C(=O)c2ccc(OCCN3CCCCC3)cc2)cc1)c1ccccc1` [Compound 12], in series [1], the inhibition in vivo at 1 mg/kg came to 60%.
For `O=C(c1ccc(OCCN2CCCC2)cc1)c1c(-c2ccc(O)cc2)sc2cc(O)ccc12` [Compound 16], the inhibition in vivo at 1 mg/kg in series [1] came out at 25%.
For the compound `COc1ccc(-c2sc3cc(OC)ccc3c2C(=O)c2ccc(OCCN3CCCCC3)cc2)cc1` [Compound 18], the inhibition in vivo at 1 mg/kg in series [1] is 26%.
With `C#C[C@]1(O)CC[C@H]2[C@@H]3CCc4cc(O)ccc4[C@H]3CC[C@@]21C` [EE2, ethynyl estradiol], in series [1], the “Prevention of bone loss (in words)” value is “prevented this loss of bone in a dose dependent manner”.
On to `O=C(c1ccc(OCCN2CCCCC2)cc1)c1c(-c2ccc(O)cc2)sc2cc(O)ccc12` [raloxifene, 6-hydroxy-2-(4-hydroxyphenyl)-3-[4-(2-piperidinoethoxy)benzoyl]benzo[b]thiophene], for which the “Prevention of bone loss (in words)” value in series [1] is reported as “prevented bone loss in a dose dependent manner”.
Regarding estrogen, in series [2] (long-term therapy, postmenopausal women), the “Disorders implicated in long-term estrogen therapy (in words)” value was “increased risk of uterine and breast cancer”. The “Protective effects of estrogen therapy on bone (in words)” value in series [2] (women smokers (Kiel et al.)) is “eliminated for women smokers”.
